# Results published in US10266549B2, “ULK1 inhibitors and methods using same” (SALK INSTITUTE FOR BIOLOGICAL STUDIES, priority 2014, dated 2019).
# How the values were obtained:
# A549 lung cancer cells = test: AnnexinV apoptosis analysis in A549 cells with mTOR inhibitor; type: cell-based
# Procedure: A549 cells (ATCC #CCL185) and MEFs were seeded at a concentration of 2.5×10^5 cells/mL (i.e., 750,000 cells per 6 cm dish), grown overnight (18 hrs) and treated as indicted in the figure legends. Unless otherwise indicated, “starvation” is EBSS and “control” is DMEM with full serum for indicated timepoints. Samples for western blot were washed once in 1× ice cold PBS and lysed in boiling SDS lysis buffer (10 mM Tris […], 100 mM NaCl, 1% SDS). After trituration, lysates were equilibrated for protein levels using the BCA method (Pierce) and resolved on 8 to 15% SDS-PAGE gels, depending on the size of the protein. PVDF membranes were probed with indicated antibodies overnight according to the manufacturers instructions.
# For flow cytometry analysis, cells were collected at the appropriate time point, washed once in PBS, trypsinized and pelleted. For Annexin V staining, cells were washed in 1× Annexin V buffer and treated as described by the Annexin V staining protocol (BD Pharmingen, San Diego, Calif.). Briefly, cells were resuspended in Annexin V buffer to a concentration of one million per mL, 100,000 cells were then stained with 5 μL of phycoerythrin (PE)-conjugated Annexin V antibody (BD Pharmingen, San Diego, Calif.) and 5 μL of 7-amino-actinomycin D (7AAD) and then incubated at room temperature for 15 minutes. 400 μL of Annexin V buffer was then added to each sample with gentle mixing. Stained cells were analyzed using a FACScan flow cytometer (Becton Dickinson, San Jose, Calif.). Flow cytometry data was analyzed using FlowJo 8.6 software (Tree Star Inc., Ashland, Oreg.).
# There has been great interest in the role of autophagy in the survival of tumor cells, particular tumor cells faced with metabolic stress from chemotherapies or targeted therapeutics. We next examined whether compound 14 would promote apoptosis in tumor cells similar to the MEFs, selectively under conditions in which autophagy is actively engaged. […] Given that mTOR activity is a dominant regulator of ULK1 activity, and we previously noted that treatment of cells with mTOR catalytic inhibitors was sufficient to induce ULK1 activity, we examined the effect of adding in the ULK1 inhibitor in the context of treatment with mTOR catalytic inhibitors. Using a cell line well-established to be sensitive to mTORC1 inhibition, A549 lung cancer cells, we treated with escalating doses of ULK1 inhibitor while keeping a constant cytostatic growth arrest-inducing 1 micromolar dose of the mTOR catalytic inhibitor AZD8055. We observed that 5 μM compound 14 in combination with AZD8055 triggered apoptosis in 22% of A549 cells compared to 9% of the 5 μM compound 14 alone or 6% of those cells treated with AZD8055 alone. […]
# ULK1 [1] = molecular target: ULK1 (Homo sapiens (Human), UniProt O75385); test: ULK1 inhibition assay (Table 1); type: biochemical; conditions: * = tested as a mixture of regioisomers
# Chain of ULK1 (Homo sapiens (Human), UniProt O75385) (O75385 whole entry, species assumed): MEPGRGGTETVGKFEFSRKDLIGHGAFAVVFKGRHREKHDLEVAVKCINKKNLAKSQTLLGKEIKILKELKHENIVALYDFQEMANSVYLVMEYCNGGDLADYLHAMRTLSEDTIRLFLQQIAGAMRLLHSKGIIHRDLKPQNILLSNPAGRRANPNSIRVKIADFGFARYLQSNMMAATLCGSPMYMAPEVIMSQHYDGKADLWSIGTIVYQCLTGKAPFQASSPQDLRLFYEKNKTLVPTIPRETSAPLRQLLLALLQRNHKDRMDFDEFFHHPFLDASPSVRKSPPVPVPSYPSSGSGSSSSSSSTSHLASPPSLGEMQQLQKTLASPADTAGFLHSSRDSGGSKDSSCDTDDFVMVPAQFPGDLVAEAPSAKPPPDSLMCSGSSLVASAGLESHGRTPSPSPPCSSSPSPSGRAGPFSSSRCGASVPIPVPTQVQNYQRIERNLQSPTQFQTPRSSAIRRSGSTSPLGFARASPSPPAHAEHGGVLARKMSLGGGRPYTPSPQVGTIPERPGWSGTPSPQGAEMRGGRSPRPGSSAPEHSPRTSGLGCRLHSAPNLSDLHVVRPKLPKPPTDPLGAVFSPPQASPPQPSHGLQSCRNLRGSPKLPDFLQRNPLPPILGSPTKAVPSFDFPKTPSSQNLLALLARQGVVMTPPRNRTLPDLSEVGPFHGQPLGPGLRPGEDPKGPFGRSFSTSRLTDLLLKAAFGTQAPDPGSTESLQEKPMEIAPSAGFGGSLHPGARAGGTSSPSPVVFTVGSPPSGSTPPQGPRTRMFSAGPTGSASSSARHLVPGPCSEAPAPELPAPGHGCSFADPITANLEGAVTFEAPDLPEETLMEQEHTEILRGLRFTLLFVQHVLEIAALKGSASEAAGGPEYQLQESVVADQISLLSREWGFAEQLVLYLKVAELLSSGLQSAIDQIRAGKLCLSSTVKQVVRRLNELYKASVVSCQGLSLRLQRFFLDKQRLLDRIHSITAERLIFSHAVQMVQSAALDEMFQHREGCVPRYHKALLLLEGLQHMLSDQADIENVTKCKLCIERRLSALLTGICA
# JAK2 = JAK2 (Homo sapiens (Human), UniProt O60674); test: classic in vitro kinase assay, dose-response (Reaction Biology); type: biochemical; conditions: dose-response curves
# Chain of JAK2 (O60674 whole entry): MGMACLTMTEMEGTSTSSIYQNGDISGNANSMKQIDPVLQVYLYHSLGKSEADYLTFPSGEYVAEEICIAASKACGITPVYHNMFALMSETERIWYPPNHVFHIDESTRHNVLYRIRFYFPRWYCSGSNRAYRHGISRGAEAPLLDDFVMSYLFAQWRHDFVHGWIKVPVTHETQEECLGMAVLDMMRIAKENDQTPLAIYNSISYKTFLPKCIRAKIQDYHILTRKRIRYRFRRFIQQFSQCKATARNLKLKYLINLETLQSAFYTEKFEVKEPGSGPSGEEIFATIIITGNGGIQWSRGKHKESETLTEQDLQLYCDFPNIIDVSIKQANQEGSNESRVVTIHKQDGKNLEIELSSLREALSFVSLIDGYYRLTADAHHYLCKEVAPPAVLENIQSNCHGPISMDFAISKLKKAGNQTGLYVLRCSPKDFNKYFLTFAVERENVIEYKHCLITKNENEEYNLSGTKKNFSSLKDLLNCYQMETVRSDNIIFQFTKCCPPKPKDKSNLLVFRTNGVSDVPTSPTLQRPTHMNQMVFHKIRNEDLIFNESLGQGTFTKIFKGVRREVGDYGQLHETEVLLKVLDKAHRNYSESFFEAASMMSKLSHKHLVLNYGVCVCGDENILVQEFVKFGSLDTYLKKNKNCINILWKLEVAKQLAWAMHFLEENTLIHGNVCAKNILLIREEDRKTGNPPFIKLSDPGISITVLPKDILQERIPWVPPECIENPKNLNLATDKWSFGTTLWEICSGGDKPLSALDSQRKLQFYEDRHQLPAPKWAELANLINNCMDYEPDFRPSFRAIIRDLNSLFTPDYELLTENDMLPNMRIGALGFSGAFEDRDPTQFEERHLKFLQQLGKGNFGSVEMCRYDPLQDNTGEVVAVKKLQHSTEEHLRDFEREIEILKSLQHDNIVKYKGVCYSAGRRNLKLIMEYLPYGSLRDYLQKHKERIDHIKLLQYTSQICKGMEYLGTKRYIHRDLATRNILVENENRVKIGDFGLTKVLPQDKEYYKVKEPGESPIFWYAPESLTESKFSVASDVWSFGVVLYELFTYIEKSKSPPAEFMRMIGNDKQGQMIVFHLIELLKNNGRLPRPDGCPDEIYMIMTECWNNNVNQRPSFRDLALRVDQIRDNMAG
# Procedure: (§1) Kinase inhibitor specificity profiling assays were first carried out using DiscoveRx KINOMEscan competition binding assay against a panel of 456 kinases (www dot discoverx dot corn) using 1 μM compound 14.
# (§2) To use a more well-established measure of the selectivity of compound 14 against its top binding kinases, we examined dose-response curves for its inhibition of these kinases in a classic in vitro kinase assays. Here we tested the ten kinases most suppressed by compound 14 by the ATP binding assay. […] It is important to note that even though compound 14 inhibits these 4 kinase quite equivalently across all of the different assays we have examined, this is still greater selectivity than all but a handful of widely used ATP-competitive kinases inhibitors widely used in clinical oncology today. We next examined the ability of compound 14 to suppress signaling downstream of various kinases in cells in culture. […] Similarly, compound 14 inhibited FAK and AuroraA comparably to ULK1 in MEFs as well.
# AuroraA kinase = AuroraA kinase (Homo sapiens (Human), UniProt O14965); test: as above; type: biochemical; conditions: dose-response curves
# Chain of AuroraA kinase (O14965 whole entry): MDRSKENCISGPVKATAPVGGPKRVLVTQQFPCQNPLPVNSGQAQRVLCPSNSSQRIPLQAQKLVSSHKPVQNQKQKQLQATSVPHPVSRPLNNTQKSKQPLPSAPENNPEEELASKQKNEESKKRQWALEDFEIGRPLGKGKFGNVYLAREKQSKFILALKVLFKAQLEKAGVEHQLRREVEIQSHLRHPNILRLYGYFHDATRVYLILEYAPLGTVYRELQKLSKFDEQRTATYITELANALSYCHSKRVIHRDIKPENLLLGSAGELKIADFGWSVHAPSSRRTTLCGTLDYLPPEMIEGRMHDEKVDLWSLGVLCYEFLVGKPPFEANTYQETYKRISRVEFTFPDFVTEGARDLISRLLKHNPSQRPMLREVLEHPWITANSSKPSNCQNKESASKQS
# Procedure: as §1, §2
# FAK = FAK (Homo sapiens (Human), UniProt Q05397); test: as above; type: biochemical; conditions: dose-response curves
# Chain of FAK (Q05397 whole entry): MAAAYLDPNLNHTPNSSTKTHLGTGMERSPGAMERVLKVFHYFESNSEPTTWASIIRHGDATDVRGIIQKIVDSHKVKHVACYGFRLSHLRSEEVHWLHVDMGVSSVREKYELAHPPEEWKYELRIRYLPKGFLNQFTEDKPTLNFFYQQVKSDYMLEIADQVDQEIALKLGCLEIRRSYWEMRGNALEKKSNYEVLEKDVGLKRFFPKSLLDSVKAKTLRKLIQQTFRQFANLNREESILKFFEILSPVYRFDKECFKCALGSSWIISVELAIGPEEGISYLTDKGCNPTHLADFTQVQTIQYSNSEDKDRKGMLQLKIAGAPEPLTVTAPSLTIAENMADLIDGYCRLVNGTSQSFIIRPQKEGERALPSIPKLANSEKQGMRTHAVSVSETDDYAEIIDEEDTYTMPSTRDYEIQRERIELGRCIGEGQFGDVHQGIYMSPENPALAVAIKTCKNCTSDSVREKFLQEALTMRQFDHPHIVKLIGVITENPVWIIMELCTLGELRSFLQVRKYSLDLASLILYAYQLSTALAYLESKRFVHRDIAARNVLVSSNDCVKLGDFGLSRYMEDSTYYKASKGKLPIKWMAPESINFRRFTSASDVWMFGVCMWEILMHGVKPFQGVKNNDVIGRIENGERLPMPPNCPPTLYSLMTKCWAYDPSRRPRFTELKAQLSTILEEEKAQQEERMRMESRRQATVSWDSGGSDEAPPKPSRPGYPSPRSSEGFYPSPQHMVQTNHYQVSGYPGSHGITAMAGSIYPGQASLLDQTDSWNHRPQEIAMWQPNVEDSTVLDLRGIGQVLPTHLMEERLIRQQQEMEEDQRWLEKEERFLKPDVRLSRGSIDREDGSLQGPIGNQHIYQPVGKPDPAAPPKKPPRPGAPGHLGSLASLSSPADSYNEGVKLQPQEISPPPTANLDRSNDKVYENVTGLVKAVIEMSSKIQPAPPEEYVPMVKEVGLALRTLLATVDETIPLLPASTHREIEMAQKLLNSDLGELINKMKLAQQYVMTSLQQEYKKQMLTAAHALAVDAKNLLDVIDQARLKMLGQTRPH
# Procedure: as §1, §2
# ULK1 [2] = test: phosphorylation of ULK1 substrates (Vps34 Ser249, Beclin Ser15) in HEK293T cells co-expressing wild-type ULK1; type: cell-based, human
# Procedure: At 24-hr post-transfection, cells were treated with a panel of putative ULK1 competitive inhibitors in a dose-response manner (1, 10, 50 μM). Cellular lysates were isolated after 1 hr of treatment and immunoblotted with the indicated antibodies. Representative results for compound 14 are shown.
# FIG. 7C: HEK293T cells were transfected with WT or KI ULK1 and WT Vps34 (left) or WT Flag-tagged Beclin1 (WT Beclin1; right). At 24-hr post-transfection, cells were treated with compound 14 (10 μM) or DMSO. Cellular lysates were isolated after 1 hr of treatment and immunoblotted with the indicated antibodies.
# For transient expression in HEK293T cells were transfected with 2 ug each DNA plasmid per 6 cm dish using Lipofectamine 2000 (Invitrogen) following the manufacturer's protocol. Cells were harvested 24 hours after transfection and rinsed once with ice-cold PBS and lysed in boiling SDS lysis buffer (10 mM Tris pH7.5, 100 mM NaCl, 1% SDS). After trituration, lysates were equilibrated for protein levels using the BCA method (Pierce) and resolved on 8 to 15% SDS-PAGE Phos-Tag™ gels according to the manufacturer's instructions. Briefly, Phos-Tag™ AAL-107 (HARD #304-93521) was added to SDS-PAGE acryamide mixture at a final concentration of 50 μM along with MnCl2 at a final concentration of 100 μM. […]
smiles,measurement,setting,value
"CNC(=O)c1ccccc1Nc1nc(Nc2cc(OC)c(OC)c(OC)c2)ncc1Br [compound 14, 2-(5-bromo-2-(3,4,5-trimethoxyphenylamino)pyrimidin-4-ylamino)-N-methylbenzamide]","apoptosis, % of A549 cells",A549 lung cancer cells; 5 μM compound 14 alone,9%
same,"apoptosis, % of A549 cells",A549 lung cancer cells; 5 μM compound 14 in combination with 1 micromolar AZD8055,22%
same,induction of Annexin-V+ apoptotic A549 cells,A549 lung cancer cells; 10 or 20 μM compound 14 with AZD8055,even more dramatically heightened
same,IC50,ULK1 [1],< 200 nM
same,inhibition relative to ULK1,JAK2,equivalently inhibited
same,inhibition relative to ULK1,AuroraA kinase,equivalently inhibited
same,inhibition relative to ULK1,FAK,equivalently inhibited
same,inhibition of Beclin Ser15 and Vps34 Ser249 phosphorylation,"ULK1 [2]; 10 μM, 1 hr",inhibited Beclin Ser15 and Vps34 Ser249 to comparable extents
same,concentration inhibiting P-Vps34 on overexpressed Vps34,"ULK1 [2]; WT ULK1 + Flag-Vps34, 1 hr treatment",~5 µM
